Consider 2 compounds from patent publication US8906111B2, “Artificial bone material having controlled calcium ion elution” (The University of Tokyo, priority 2008, dated 2014).

Data set [1] deals with Macrophage-like cells RAW267.4. The data set can be described thus: Release of [3H] arachidonic acid (lipid mediator) from macrophage-like cells treated with CaCl2-gluconic acid solutions. It is filed as cell-based. To be noted: FIG. 3. How it is done: An increased concentration of extracellular calcium ions activates an inflammatory response route through increase of intracellular calcium ion and/or a sensing mechanism of extracellular calcium ion. The present inventors studied whether induction of inflammatory responses due to increase of calcium ions can be prevented or not by chelating calcium ions. Solutions of 5 mM CaCl2—0.384% gluconic acid and 7.5 mM CaCl2—0.384% gluconic acid (referred to as Ca^2+Gluc.Acid), the pH of which were adjusted to approximately 7 with NaOH, were prepared and allowed to stand for one hour at room temperature. Macrophage-like cells RAW267.4, which were labeled with 1 μCi [^3H] arachidonic acid one day before, were treated with respective CaCl2-gluconic acid solutions for one hour, and measured for the amount of released lipid mediator with a liquid scintillation counter.
FIG. 3 is a graph, in place of a drawing, showing that gluconic acid prevents inflammatory responses induced by calcium ions. Each vertical axis of FIGS. 3A and 3B indicates release of arachidonic acid (rates of released [^3H] arachidonic acid). The higher value refers to more arachidonic acid being released, indicating an activation of arachidonate cascade, which is one of the major inflammatory responses. In FIG. 3, the “mock” refers to a sample without CaCl2 or gluconic acid addition, which was prepared as a control. […]

Data set [2] in a line: Chelating effect on calcium ion measured with a calcium ion electrode. The following applies: 0.25% to 25% gluconic acid containing 2.5 mM CaCl2, pH 7.0; FIG. 2. It is filed as physicochemical. How it is done:
To confirm chelating effects of gluconic acid on calcium ion, the concentration of calcium ion in the presence of gluconic acid was measured with a calcium ion electrode. The vertical axis of FIG. 2 indicates the concentration of calcium ion (Ca^2+) (mg/L). […] The results might be attributed to the gluconic acid chelating calcium ions.

For the compound `[Ca+2].[Cl-].[Cl-]` [CaCl2], the “release of arachidonic acid (amount of released lipid mediator)” value in data set [1] (CaCl2 (5 mM or 7.5 mM) without gluconic acid, compared with the mock) is “released increased amount of lipid mediator”.

As for `O=C(O)[C@H](O)[C@@H](O)[C@H](O)[C@H](O)CO` [gluconic acid], in data set [2], the “concentration of calcium ion (Ca2+)” value was “the higher the concentration of gluconic acid became, the concentration of calcium ion lowered”. For the same compound, the “release of arachidonic acid (rates of released [3H] arachidonic acid)” value in data set [1] (5 mM or 7.5 mM CaCl2 with 0.384% gluconic acid, pH approx. 7, cells treated one hour) is reported as “arachidonate cascade activation was prevented”.
